The term Ki denotes the dissociation constant of the complex between target and ligand, obtained from inhibition or displacement.

Experiment [1] concerns the target T1, glucocorticoid receptor (Homo sapiens, UniProt P04150).
T1 construct: containing 50-200 ug of A549 cell extract and 1.86 nM [^3H]-dexamethasone; host or cells: A549 human lung epithelial cells (sonicated cell extract)
T1 sequence (P04150 1-777): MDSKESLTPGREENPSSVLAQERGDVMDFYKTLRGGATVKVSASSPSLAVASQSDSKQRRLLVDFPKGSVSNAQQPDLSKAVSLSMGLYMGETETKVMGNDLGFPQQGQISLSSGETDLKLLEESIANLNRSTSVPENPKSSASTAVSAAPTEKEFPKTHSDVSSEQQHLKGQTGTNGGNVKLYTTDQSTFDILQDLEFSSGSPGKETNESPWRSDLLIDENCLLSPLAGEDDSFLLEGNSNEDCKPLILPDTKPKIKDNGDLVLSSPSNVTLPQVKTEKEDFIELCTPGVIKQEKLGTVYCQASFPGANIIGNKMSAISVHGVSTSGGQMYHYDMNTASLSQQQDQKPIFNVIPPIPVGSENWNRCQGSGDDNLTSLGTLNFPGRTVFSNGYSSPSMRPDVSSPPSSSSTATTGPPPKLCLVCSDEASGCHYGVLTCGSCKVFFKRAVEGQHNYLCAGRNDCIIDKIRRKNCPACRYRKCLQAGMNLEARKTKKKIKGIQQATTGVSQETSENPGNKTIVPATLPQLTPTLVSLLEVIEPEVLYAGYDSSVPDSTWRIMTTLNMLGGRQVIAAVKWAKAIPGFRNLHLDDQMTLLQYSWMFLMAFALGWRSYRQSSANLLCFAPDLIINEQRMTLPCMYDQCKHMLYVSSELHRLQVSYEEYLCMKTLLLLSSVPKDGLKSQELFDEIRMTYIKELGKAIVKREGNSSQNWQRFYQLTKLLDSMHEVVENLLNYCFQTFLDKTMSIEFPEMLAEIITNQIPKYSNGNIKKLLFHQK
Description: Glucocorticoid Receptor Binding Assay ([3H]-dexamethasone, A549 cell extract). Conditions: [3H]-dexamethasone binding, read-out: GR Ki. The method, boiled down:
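A549 cell extract (50–200 ug) incubated with 1.86 nM [3H]-dexamethasone and test compound for 16 h at 4 °C in Tris-HCl pH 7.2 buffer with glycerol and molybdate. Unbound radioligand removed by dextran-coated charcoal, then supernatant bound counts measured by scintillation.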

The target in experiment [2] is T2, human MR (Homo sapiens, UniProt P08235).
T2 construct: The full length human MR gene is cloned from a human kidney or human brain cDNA library; His tag from the pAcHLT vector (own knowledge); made in house; host or cells: Sf9 insect cells (baculovirus, pAcHLT transfer vector)
T2 sequence (P08235 1-984): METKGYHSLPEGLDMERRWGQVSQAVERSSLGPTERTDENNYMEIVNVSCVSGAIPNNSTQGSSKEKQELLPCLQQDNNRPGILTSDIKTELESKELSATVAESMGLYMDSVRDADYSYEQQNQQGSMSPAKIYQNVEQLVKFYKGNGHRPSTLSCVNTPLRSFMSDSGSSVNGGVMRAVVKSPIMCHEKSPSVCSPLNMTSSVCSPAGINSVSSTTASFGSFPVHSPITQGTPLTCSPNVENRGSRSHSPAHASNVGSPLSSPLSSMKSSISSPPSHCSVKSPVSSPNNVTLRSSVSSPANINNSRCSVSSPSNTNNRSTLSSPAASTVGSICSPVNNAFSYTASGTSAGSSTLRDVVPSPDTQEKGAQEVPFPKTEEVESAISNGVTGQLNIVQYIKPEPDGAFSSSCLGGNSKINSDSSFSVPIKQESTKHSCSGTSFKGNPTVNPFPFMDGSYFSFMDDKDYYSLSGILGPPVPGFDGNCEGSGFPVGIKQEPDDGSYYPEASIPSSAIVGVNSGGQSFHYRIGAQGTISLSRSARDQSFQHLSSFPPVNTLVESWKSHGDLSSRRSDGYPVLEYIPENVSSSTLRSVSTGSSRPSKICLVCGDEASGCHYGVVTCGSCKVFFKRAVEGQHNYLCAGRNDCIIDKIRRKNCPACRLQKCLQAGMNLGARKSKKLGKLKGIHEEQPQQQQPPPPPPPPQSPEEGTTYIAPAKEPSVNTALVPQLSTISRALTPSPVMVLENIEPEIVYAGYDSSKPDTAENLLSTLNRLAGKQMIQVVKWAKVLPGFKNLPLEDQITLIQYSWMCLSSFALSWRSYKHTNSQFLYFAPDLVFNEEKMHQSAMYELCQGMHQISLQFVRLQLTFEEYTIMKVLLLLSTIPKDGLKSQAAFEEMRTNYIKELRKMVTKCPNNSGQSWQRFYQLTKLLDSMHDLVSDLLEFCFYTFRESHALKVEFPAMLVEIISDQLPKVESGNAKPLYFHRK
Put plainly: Mineralocorticoid Receptor Binding Assay ([3H]-aldosterone). The conditions noted are these: [3H]-aldosterone binding, human MR expressed in Sf9 cells; read-out: MR Ki. The method, boiled down:
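Lysate supernatant of Sf9 cells expressing full-length human MR (20-25 μg protein) was incubated with 0.5 nM [3H]-aldosterone and test compound in molybdate/Tris/phosphate/glycerol buffer, pH 7.5, ~16 h at 4 °C. Bound ligand was filtered and counted by scintillation; IC50 is the concentration halving [3H]-aldosterone binding.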

The structures appear in SMILES notation.

As for `CS(=O)(=O)Nc1cccc(C=C2c3ccccc3CCc3cc(F)cc(F)c32)c1` [Example 344], the Ki in experiment [1] and in experiment [2] was under 500 nM throughout.

Turning to `CS(=O)(=O)NCc1ccc(/C=C2/c3ccccc3CCc3cc(Cl)ccc32)cc1` [Example 345], the Ki in experiment [1] was under 10000 nM; in experiment [2], under 500 nM.

Regarding `CS(=O)(=O)NCc1ccc(/C=C2\c3ccccc3CCc3cc(Cl)ccc32)cc1` [Example 346], the inhibition constant (Ki) in experiment [1] was under 10000 nM; in experiment [2] it was under 500 nM.

As for `COc1ccc2c(c1)/C(=C/c1cccc(NS(C)(=O)=O)c1)c1ccccc1CC2` [Example 347], the Ki in experiment [1] and in experiment [2] was under 500 nM in each case.

Consider `COc1ccc2c(c1)/C(=C\c1cccc(NS(C)(=O)=O)c1)c1ccccc1CC2` [Example 348], for which the Ki in experiment [1] and in experiment [2] was under 500 nM in each case.

As for `COc1ccc2c(c1)[C@@H](Cc1cccc(NS(C)(=O)=O)c1)c1ccccc1CC2` [Example 349], the Ki in experiment [1] and in experiment [2] was under 500 nM in each case.

With `CS(=O)(=O)Nc1cccc(/C=C2/c3ccccc3CCc3ccc(O)cc32)c1` [Example 350], the Ki in experiment [1] and in experiment [2] was under 500 nM throughout.

Take `COc1ccc2c(c1)CCc1ccccc1[C@@H]2Cc1cccc(NS(C)(=O)=O)c1` [Example 351]: the Ki in experiment [1] and in experiment [2] was under 500 nM in each case.

On to `CS(=O)(=O)Nc1cccc(/C=C2\c3ccccc3CCc3ccc(O)cc32)c1` [Example 352], for which the Ki in experiment [1] and in experiment [2] was under 500 nM each time.

`COc1cccc2c1C(=Cc1cccc(NS(C)(=O)=O)c1)c1ccccc1CC2` [Example 353]: the Ki in experiment [1] and in experiment [2] was under 500 nM throughout.

Regarding `CS(=O)(=O)Nc1cccc(/C=C2\c3ccccc3CCc3cc(F)ccc32)c1` [Example 355], the Ki in experiment [1] and in experiment [2] was under 500 nM in each case.

Regarding `CS(=O)(=O)Nc1cccc(C=C2c3ccc(F)cc3CCc3cc(F)ccc32)c1` [Example 360], the Ki in experiment [1] is under 1000 nM; in experiment [2], under 500 nM.

Regarding `N#Cc1cccc2c1CCc1ccccc1/C2=C/c1cccc(O)c1` [Example 363], the Ki in experiment [1] and in experiment [2] was under 500 nM throughout.

`N#Cc1cccc2c1CCc1ccccc1/C2=C\c1cccc(O)c1` [Example 364]: the Ki in experiment [1] and in experiment [2] was under 500 nM each time.

In the case of `CS(=O)(=O)Nc1cccc(/C=C2\c3ccccc3CCc3cccc(Cl)c32)c1` [Example 365], the Ki in experiment [1] and in experiment [2] was under 500 nM throughout.

`CS(=O)(=O)Nc1cccc(/C=C2/c3ccccc3CCc3cccc(Cl)c32)c1` [Example 366]: the Ki in experiment [1] and in experiment [2] was under 500 nM each time.

For `Oc1cccc(/C=C2/c3ccccc3CCc3cccc(Cl)c32)c1` [Example 367], the Ki was under 10000 nM in experiment [1] and under 500 nM in experiment [2].

Turning to `COc1cccc(/C=C2\c3ccccc3CCc3c(O)cccc32)c1` [Example 368], the Ki is under 10000 nM in experiment [1] and under 500 nM in experiment [2].

As for `COc1cccc(/C=C2/c3ccccc3CCc3c(O)cccc32)c1` [Example 369], the Ki was under 10000 nM in experiment [1] and under 500 nM in experiment [2].

As to `Oc1cccc(/C=C2\c3ccccc3CCc3cccc(Cl)c32)c1` [Example 370], the Ki was under 1000 nM in experiment [1] and under 500 nM in experiment [2].

Turning to `Oc1cccc(/C=C2/c3ccccc3CCc3c(Br)cccc32)c1` [Example 371], the Ki in experiment [1] and in experiment [2] was under 500 nM in each case.

Regarding `Oc1cccc(/C=C2\c3ccccc3CCc3c(Br)cccc32)c1` [Example 372], the values for the Ki in experiment [1] and in experiment [2] were under 1000 nM and under 500 nM, respectively.

As to `Oc1cccc(C=C2c3ccccc3CCc3c2cccc3C(Br)Br)c1` [Example 373], the Ki is under 10000 nM in experiment [1] and under 500 nM in experiment [2].

As to `CS(=O)(=O)Nc1cccc(/C=C2/c3ccccc3CCc3cc(C(F)F)ccc32)c1` [Example 374], the Ki in experiment [1] and in experiment [2] was under 500 nM in each case.

In the case of `CS(=O)(=O)Nc1cccc(/C=C2\c3ccccc3CCc3cc(C(F)F)ccc32)c1` [Example 375], the Ki in experiment [1] and in experiment [2] was under 500 nM throughout.

Take `Oc1cccc(/C=C2\c3ccccc3CCc3c(O)cccc32)c1` [Example 376]: the Ki in experiment [1] and in experiment [2] was under 500 nM throughout.

In the case of `Oc1cccc(/C=C2/c3ccccc3CCc3c(O)cccc32)c1` [Example 377], the Ki in experiment [1] is under 10000 nM; in experiment [2], under 500 nM.

`O=Cc1cccc2c1CCc1ccccc1/C2=C\c1cccc(O)c1` [Example 378]: the Ki is under 1000 nM in experiment [1] and under 500 nM in experiment [2].

`O=Cc1cccc2c1CCc1ccccc1/C2=C/c1cccc(O)c1` [Example 379]: the Ki in experiment [1] was under 10000 nM; in experiment [2], under 500 nM.

In the case of `Oc1cccc(/C=C2/c3ccccc3CCc3c2cccc3C(F)F)c1` [Example 380], the Ki in experiment [1] was under 1000 nM; in experiment [2], under 500 nM.

In the case of `CS(=O)(=O)Nc1cccc(/C=C2/c3ccccc3CCc3c2cccc3C(F)F)c1` [Example 381], the Ki in experiment [1] and in experiment [2] was under 500 nM in each case.

Take `CS(=O)(=O)Nc1cccc(/C=C2\c3ccccc3CCc3c2cccc3C(F)F)c1` [Example 382]: the Ki in experiment [1] and in experiment [2] was under 500 nM each time.

`CS(=O)(=O)Nc1cccc(C[C@H]2c3ccccc3CCc3cc(F)ccc32)c1` [Example 383]: the Ki in experiment [1] and in experiment [2] was under 500 nM throughout.

For the molecule `Nc1cccc(C=C2c3ccc(F)cc3CCc3cc(F)ccc32)c1` [Example 384], the Ki in experiment [1] and in experiment [2] was under 500 nM throughout.

Take `N#CNc1cccc(C=C2c3ccc(F)cc3CCc3cc(F)ccc32)c1` [Example 385]: the Ki was under 1000 nM in experiment [1] and under 500 nM in experiment [2].

Turning to `COC(=O)c1ccc2c(c1)CCc1ccccc1/C2=C\c1cccc(NS(C)(=O)=O)c1` [Example 386], the Ki in experiment [1] and in experiment [2] was under 500 nM each time.

As to `COC(=O)c1ccc2c(c1)CCc1ccccc1/C2=C/c1cccc(NS(C)(=O)=O)c1` [Example 387], the Ki in experiment [1] and in experiment [2] was under 500 nM throughout.

`CSc1ccc2c(c1)CCc1ccccc1/C2=C\c1cccc(NS(C)(=O)=O)c1` [Example 388]: the Ki in experiment [1] and in experiment [2] was under 500 nM each time.

On to `CSc1ccc2c(c1)CCc1ccccc1/C2=C/c1cccc(NS(C)(=O)=O)c1` [Example 389], for which the Ki in experiment [1] and in experiment [2] was under 500 nM in each case.

On to `CS(=O)(=O)Nc1cccc(/C=C2/c3ccccc3CCc3cc(C(F)(F)F)ccc32)c1` [Example 390], for which the Ki in experiment [1] and in experiment [2] was under 500 nM throughout.

Regarding `CS(=O)(=O)Nc1cccc(/C=C2\c3ccccc3CCc3cc(C(F)(F)F)ccc32)c1` [Example 391], the Ki in experiment [1] and in experiment [2] was under 500 nM each time.

For the origin of these results see US20060063759A1, “Tricyclic steroid hormone nuclear receptor modulators” (priority 2002, published 2006).
